# Earlier results in patent US20260216081A1, “METFORMIN HYDROCHLORIDE ENTERIC-COATED PREPARATION” (YAYAN (TIANJIN) BIOMEDICAL TECHNOLOGY CENTER (LIMITED …, priority 2023, published 2026).
# Settings: background statement
structure (smiles),measurement,value
CN(C)C(=N)N=C(N)N [metformin],Incidence of gastrointestinal adverse reactions,20-30%
